Measurements from patent US5389663A, “1-(1h-1,2,4-triazole-yl)-2-propanol compounds” (Takeda Chemical Industries, Ltd., priority 1991, dated 1995).

Columns and labels:
[1] = tested on: Candida albicans; assay: Protective effect against Candida albicans infection in mice; format: in vivo, Crj:CDF1 mice; settings: 168 h, minimum lethal dose of Candida albicans iv, drug once immediately after infection, survival 7 days after infection
Description: Test Method: Five-week old Crj:CDF1 mice were inoculated with the minimum lethal dose of Candida albicans intravenously. The test drug was given once immediately after infection. The effectiveness of the drug was expressed in ED50 values calculated by the Reed and Muench method from the survival rate 7 days after infection.

[2] = tested on: Candida albicans IFO 0583; assay: Paper disc agar diffusion, growth inhibition zone, Candida albicans IFO 0583; format: cell-based; settings: Table 5, Medium A, 28° C., two-day culture, 1000 μ/ml, 8 mm disc; for zone of inhibition at 1000 µg/mL: Candida albicans, IFO0583, 48 h, read-out: Diameter of growth-inhibition zone
Description: Evaluation of the antifungal activities of the compound of formula (I) was conducted by the following method: a sheet of filter paper disc (manufactured by Toyo Seisakusho, 8 mm in diameter) soaked in a […] solution of a compound of formula (I) in methanol was placed on an agar plate containing various fungi, which was incubated at 28° C. for two days, and the diameter of the growth inhibition zone around the filter paper disc was measured. The following culture media were used: A: yeast nitrogen base agar medium (pH 7.0) B: Sabouraud agar medium
cpd. No. (Medium A, 28° C., two-day culture)

C[C@H]([C@](O)(Cn1cncn1)c1ccc(F)cc1F)S(=O)(=O)NC1CC1 [Compound 10, N-cyclopropyl-[(2R,3R)-3-(2,4-difluorophenyl)-3-hydroxy-4-(1H-1,2,4-triazol-1-yl)-2-butane]sulfonamide]
ED50 ([1]; po): 7.07 mg/kg | ED50 ([1]; sc): 14.1 mg/kg | zone of inhibition at 1000 µg/mL [2]: 35 mm

C[C@H]([C@](O)(Cn1cncn1)c1ccc(F)cc1F)S(=O)(=O)N(C)Cc1nccs1 [Compound 78]
ED50 ([1]; po): 8 mg/kg | zone of inhibition at 1000 µg/mL [2]: 40 mm

CC(=C(Cn1cncn1)c1ccc(F)cc1F)S(=O)(=O)N(C)C (single isomer, unassigned) [Compound 35, N,N-dimethyl-3-(2,4-difluorophenyl)-4-(1H-1,2,4-triazol-1-yl)-2-butene-2-sulfonamide]
ED50 ([1]; po): 20 mg/kg | Diameter of growth-inhibition zone [2]: 30 mm

C[C@H]([C@](O)(Cn1cncn1)c1ccc(F)cc1F)S(=O)(=O)N1CCN(c2nc(Cl)ncc2F)CC1 [Compound 91, 1-[(2R,3R)-3-(2,4-difluorophenyl)-3-hydroxy-4-(1H-1,2,4-triazol-1-yl)-2-butanesulfonyl]-4-(2-chloro-5-fluoropyrimidin-4-yl)piperazine]
ED50 ([1]; po): 11.3 mg/kg | zone of inhibition at 1000 µg/mL [2]: 50 mm

CCCCNS(=O)(=O)[C@H](C)[C@](O)(Cn1cncn1)c1ccc(F)cc1F [Compound 4, N-butyl-[(2R,3R)-3-(2,4-difluorophenyl)-3-hydroxy-4-(1H-1,2,4-triazol-1-yl)-2-butane]sulfonamide]
ED50 ([1]; po): 7.07 mg/kg | zone of inhibition at 1000 µg/mL [2]: 40 mm

CCN(C)S(=O)(=O)[C@H](C)[C@](O)(Cn1cncn1)c1ccc(F)cc1F [Compound 48, N-ethyl-N-methyl[(2R,3R)-3-(2,4-difluorophenyl)-3-hydroxy-4-(1H-1,2,4-triazol-1-yl)-2-butane]sulfonamide]
ED50 ([1]; po): 11.3 mg/kg | zone of inhibition at 1000 µg/mL [2]: 48 mm

C[C@H]([C@](O)(Cn1cncn1)c1ccc(F)cc1F)S(N)(=O)=O [Compound 65, (2R,3R)-3-(2,4-difluorophenyl)-3-hydroxy-4-(1H-1,2,4-triazol-1-yl)-2-butanesulfonamide]
ED50 ([1]; po): 11.3 mg/kg | zone of inhibition at 1000 µg/mL [2]: 30 mm

C[C@H]([C@](O)(Cn1cncn1)c1ccc(F)cc1F)S(=O)(=O)N(C)Cc1cccnc1 [Compound 64, N-(3-pyridylmethyl)-N-methyl-[(2R,3R)-3-(2,4-difluorophenyl)-3-hydroxy-4-(1H-1,2,4-triazol-1-yl)-2-butane]sulfonamide]
ED50 ([1]; po): 2.8 mg/kg | zone of inhibition at 1000 µg/mL [2]: 40 mm

C[C@H]([C@](O)(Cn1cncn1)c1ccc(F)cc1F)S(=O)(=O)N1CCOCC1 [Compound 8, 4-[(2R,3R)-3-(2,4-difluorophenyl)-3-hydroxy-4-(1H-1,2,4-triazol-1-yl)-2-butylsulfonyl]morpholine]
ED50 ([1]; po): 20 mg/kg | ED50 ([1]; sc): 28.3 mg/kg | zone of inhibition at 1000 µg/mL [2]: 40 mm

C[C@@H](NS(=O)(=O)CC(F)(F)F)[C@](O)(Cn1cncn1)c1ccc(F)cc1F [Compound 55]
ED50 ([1]; po): 2 mg/kg | zone of inhibition at 1000 µg/mL [2]: 35 mm

C[C@H]([C@](O)(Cn1cncn1)c1ccc(F)cc1F)S(=O)(=O)N1CCN(c2ccc(F)cc2)CC1 [Compound 71, 4-[(2R,3R)-3-(2,4-difluorophenyl)-3-hydroxy-4-(1H-1,2,4-triazol-1-yl)-2-butanesulfonyl]-1(4-fluorophenyl)piperazine]
ED50 ([1]; po): 8 mg/kg | zone of inhibition at 1000 µg/mL [2]: 47 mm

CCCNS(=O)(=O)[C@H](C)[C@](O)(Cn1cncn1)c1ccc(F)cc1F [Compound 16, N-propyl-[(2R,3R)-3-(2,4-difluorophenyl)-3-hydroxy-4-(1H-1,2,4-triazol-1-yl)-2butane]sulfonamide]
ED50 ([1]; po): 5 mg/kg | zone of inhibition at 1000 µg/mL [2]: 40 mm

C[C@H]([C@](O)(Cn1ccnc1)c1ccc(F)cc1F)S(=O)(=O)N(C)Cc1ccc(C(F)(F)F)cc1 [Compound 86, N-methyl-N-(4-trifluoromethylbenzyl)-[(2R,3R)-3-(2,4-difluorophenyl)-3-hydroxy-4-(1-imidazolyl)-2-butane]sulfonamide]
ED50 ([1]; po): 8 mg/kg | zone of inhibition at 1000 µg/mL [2]: 35 mm

C[C@H]([C@](O)(Cn1cncn1)c1ccc(F)cc1F)S(=O)(=O)NCc1ccccc1 [Compound 58, N-benzyl-[(2R,3R)-3-(2,4-difluorophenyl)-3-hydroxy-4-(1H-1,2,4-triazol-1-yl)-2-butane]sulfonamide]
ED50 ([1]; po): 8 mg/kg | zone of inhibition at 1000 µg/mL [2]: 40 mm

C[C@H]([C@](O)(Cn1cncn1)c1ccc(F)cc1F)S(=O)(=O)N(C)Cc1nccn1C [Compound 75]
ED50 ([1]; po): 8 mg/kg | zone of inhibition at 1000 µg/mL [2]: 34 mm

C[C@H]([C@](O)(Cn1cncn1)c1ccc(F)cc1F)S(=O)(=O)N1CCN(C(=O)c2ccc(C(F)(F)F)cc2)CC1 [Compound 24, 1-[(2R,3R)-3-(2,4-difluorophenyl)-3-hydroxy-4-(1H-1,2,4-triazol-1-yl)-2-butylsulfonyl]-4-(4-trifluoromethylbenzoyl)piperazine]
zone of inhibition at 1000 µg/mL [2]: 37 mm

C[C@H]([C@](O)(Cn1cncn1)c1ccc(F)cc1F)S(=O)(=O)N1CCN(c2ncncc2F)CC1 [Compound 92]
zone of inhibition at 1000 µg/mL [2]: 53 mm

CCNS(=O)(=O)[C@H](C)[C@](O)(Cn1cncn1)c1ccc(F)cc1F [Compound 14, N-ethyl-[(2R,3R)-3-(2,4-difluorophenyl)-3-hydroxy-4-(1H-1,2,4-triazol-1-yl)-2-butane]sulfonamide]
ED50 ([1]; po): 5 mg/kg | zone of inhibition at 1000 µg/mL [2]: 38 mm

C[C@@H](N(C)S(C)(=O)=O)[C@](O)(Cn1cncn1)c1ccc(F)cc1F [Compound 53, N-[(2R,3R)-3-(2,4-difluorophenyl)-3-hydroxy-4-(1H-1,2,4-triazol-1-yl) -2-butyl]-N-methylmethanesulfornamide]
ED50 ([1]; po): 3.5 mg/kg | zone of inhibition at 1000 µg/mL [2]: 40 mm

C[C@H]([C@](O)(Cn1cncn1)c1ccc(F)cc1F)S(=O)(=O)N(C)c1ncccn1 [Compound 77, N-methyl-N-(2-pyrimidinyl)-[(2R,3R)-3-(2,4-difluorophenyl)-3-hydroxy-4-(1H-1,2,4-triazol-1-yl)-2-butane]sulfonamide]
zone of inhibition at 1000 µg/mL [2]: 40 mm

C[C@@H](NS(=O)(=O)c1ccc([N+](=O)[O-])cc1)[C@](O)(Cn1cncn1)c1ccc(F)cc1F [Compound 51]
ED50 ([1]; po): 8 mg/kg | zone of inhibition at 1000 µg/mL [2]: 38 mm

C[C@H]([C@](O)(Cn1cncn1)c1ccc(F)cc1F)S(=O)(=O)N(C)Cc1ccncc1 [Compound 76]
ED50 ([1]; po): 8 mg/kg | zone of inhibition at 1000 µg/mL [2]: 40 mm

C[C@H]([C@](O)(Cn1cncn1)c1ccc(F)cc1F)S(=O)(=O)N1CCN(c2ccc(C(F)(F)F)cc2)CC1 [Compound 73, 4-[(2R,3R)-3-(2,4-difluorophenyl)-3-hydroxy-4-(1H-1,2,4-triazol-1-yl)-2-butanesulfonyl]-1-(4-trifluoromethylphenyl)piperazine]
ED50 ([1]; po): 6.4 mg/kg | zone of inhibition at 1000 µg/mL [2]: 32 mm

CCC(C)n1ncn(-c2ccc(N3CCN(S(=O)(=O)[C@H](C)[C@](O)(Cn4cncn4)c4ccc(F)cc4F)CC3)cc2)c1=O (stereo partly drawn) [Compound 42, 1-[4-[2-(2-butyl)-2,3-dihydro-3-oxo-4H-1,2,4-triazol-4-yl]phenyl]-4-[(2R,3R)-3-(2,4-difluorophenyl)-3-hydroxy-4-(1H-1,2,4-triazol-1-yl)-2-butanesulfonyl]piperazine]
zone of inhibition at 1000 µg/mL [2]: 40 mm

C[C@@H](NS(C)(=O)=O)[C@](O)(Cn1cncn1)c1ccc(F)cc1F [Compound 49, N-[(2R,3R)-3-(2,4-difluorophenyl)-3-hydroxy-4-(1H-1,2,4-triazol-1-yl)-2-butyl]methanesulfonamide]
ED50 ([1]; po): 1.8 mg/kg | zone of inhibition at 1000 µg/mL [2]: 30 mm

C[C@@H](N(C)S(=O)(=O)CC(F)(F)F)[C@](O)(Cn1cncn1)c1ccc(F)cc1F [Compound 54]
ED50 ([1]; po): 3.5 mg/kg | zone of inhibition at 1000 µg/mL [2]: 40 mm

C[C@H]([C@](O)(Cn1cncn1)c1ccc(F)cc1F)S(=O)(=O)N(C)Cc1ccccn1 [Compound 79]
zone of inhibition at 1000 µg/mL [2]: 30 mm

C[C@@H](SN1CCN(C(=O)OC(C)(C)C)CC1)[C@](O)(Cn1cncn1)c1ccc(F)cc1F [Compound 17, N-tert-butoxycarbonyl-4-[(2R,3R)-3-(2,4-difluorophenyl)-3-hydroxy-4-(1H-1,2,4-triazol-1-yl)-2-butylsulfenyl]piperazine]
zone of inhibition at 1000 µg/mL [2]: 40 mm

C[C@@H](SN1CCOCC1)[C@](O)(Cn1cncn1)c1ccc(F)cc1F [Compound 7, N-[(2R,3R)-3-(2,4-difluorophenyl)-3-hydroxy-4-(1H-1,2,4-triazol-1-yl) -2-butylsulfenyl]morpholine]
zone of inhibition at 1000 µg/mL [2]: 33 mm

C[C@H]([C@](O)(Cn1cncn1)c1ccc(F)cc1F)S(=O)(=O)N(C)CCc1nnc(S(C)(=O)=O)s1 [Compound 84]
zone of inhibition at 1000 µg/mL [2]: 23 mm

CC(=C(Cn1cncn1)c1ccc(F)cc1F)S(=O)(=O)N1CCN(c2ccccc2)CC1 (single isomer, unassigned) [Compound 30, 1-[3-(2,4-difluorophenyl)-4-(1H-1,2,4-triazol-1-yl)-2-buten-2-ylsulfonyl]-4-phenylpiperazine]
Diameter of growth-inhibition zone [2]: 12 mm

C[C@@H](NS(=O)(=O)c1ccc(F)cc1F)[C@](O)(Cn1cncn1)c1ccc(F)cc1F [Compound 50]
zone of inhibition at 1000 µg/mL [2]: 45 mm

COc1ccc(N2CCN(S(=O)(=O)[C@H](C)[C@](O)(Cn3cncn3)c3ccc(F)cc3F)CC2)cc1 [Compound 72, 4-[(2R,3R)-3-(2,4-difluorophenyl)-3-hydroxy-4-(1H-1,2,4-triazol-1-yl)-2-butanesulfonyl]-1-(4-methoxyphenyl)piperazine]
zone of inhibition at 1000 µg/mL [2]: 48 mm
